In brackets after ≈: the same amount, converted by molar mass. Several values for one entry are separate records, joined by “and”; a condition that tells them apart may be missing. Equal entries are not always repeated. Entries after “also recorded” stand apart in the source; their conditions may differ. Where two headings read alike, the source gives them in different places.
Tests used:
M. tuberculosis [1] = test: Quantification of intracellular ATP
M. smegmatis IMVs [2] = type: biochemical
M. smegmatis [3] = test: Kinetic measurement of alamarBlue reduction
[4] = system: mycobacterial cell membrane; settings: prolonged incubation (24 h); cited from earlier work
M. smegmatis IMVs [5] = test: Determination of ΔpH collapse with IMVs (ACMA); settings: for ΔpH collapse: Acute (≤ 2 h)
M. smegmatis [6] = test: MIC against M. smegmatis; type: cell-based
M. smegmatis IMVs [7] = test: ETC activity assay with IMVs (INT reduction); type: biochemical
M. tuberculosis [8] = test: microbe, parasite or virus in culture; type: cell-based, Mycobacterium tuberculosis
[9] = system: M. tuberculosis H37Rv mc^2 6206; type: cell-based, Mycobacterium tuberculosis; settings: for NADH/NAD+ ratio: Low (≤ 62.5 µM) 2B8
M. smegmatis [10] = test: Determination of Δψ collapse by DisC3(5); type: cell-based; settings: for Δψ collapse: Acute (≤ 2 h)
M. tuberculosis [11] = test: Kinetic measurement of alamarBlue reduction; type: cell-based, Mycobacterium tuberculosis
M. smegmatis IMVs [12] = test: NADH oxidation by IMVs; type: biochemical
M. tuberculosis [13] = system: M. tuberculosis; design: method as in PMID 28749949; settings: cited from earlier work
[14] = system: M. tuberculosis mc^2 6206; type: cell-based, Mycobacterium tuberculosis; settings: for Concentration up to which OCR increased (levelling off): stepwise increments
M. tuberculosis [15] = test: β-lactam potentiation assay; type: cell-based, Mycobacterium tuberculosis
[16] = High (> 62.5 µM) 2B8, Acute (≤ 2 h)
[17] = Low (≤ 62.5 µM) 2B8, Acute (≤ 2 h)
[18] = Low (≤ 62.5 µM) 2B8, Delayed (> 2 h)
[19] = M. tuberculosis, stepwise increasing concentration, media without BSA
[20] = M. tuberculosis, compound at 50% of its MIC, MIC of β-lactam / MIC of β-lactam plus drug

CCCCCCC(CCCCCC)NC(=O)CCCc1cnc(N)[nH]1 [2B8]
[ATP]i (M. tuberculosis [1]; [16]): N o effect
[ATP]i (M. tuberculosis [1]; [17]): N o effect
[ATP]i (M. tuberculosis [1]; [18]): N o effect- ↓
[ATP]i (summary) (M. tuberculosis [1]; Table S2 summary): S t r o ng ↓
Restoration of inhibited NADH oxidation by CFZ (M. smegmatis IMVs [2]; M. smegmatis IMVs treated with 5 mM KCN, 80 µM TRZ or 125 µM 2B8, 42 µM CFZ added): also restored by CFZ
Rescue by CFZ (summary) (M. smegmatis IMVs [2]; Table S2 summary): Partial
alamarBlue reduction (M. smegmatis [3]): inhibited
Concentration causing catastrophic cell membrane disruption [4]: ≥ 125 µM
Effect on ΔpH, ACMA fluorescence reversal (M. smegmatis IMVs [5]): collapsed the ΔpH
ΔpH collapse (M. smegmatis IMVs [5]; High (> 62.5 µM) 2B8): S t r o ng
ΔpH collapse (M. smegmatis IMVs [5]; Low (≤ 62.5 µM) 2B8): Low- Strong
ΔpH collapse (summary) (M. smegmatis IMVs [5]; Table S2 summary): S t r o ng
MIC (M. smegmatis [6]; M. smegmatis, +0.5% BSA): 125 to 250 µM
MIC (M. smegmatis [6]; M. smegmatis, No BSA): 62.5 µM (≈ 21.9 µg/mL)
ETC activity (INT reduction at 490 nm) (M. smegmatis IMVs [7]): potently inhibited
ETC activity (M. smegmatis IMVs [7]; [17]): N o effect
Concentration with inhibitory effect on the ETC (M. smegmatis IMVs [7]; M. smegmatis IMVs): ≥ 78 µM
ETC activity (summary) (M. smegmatis IMVs [7]; Table S2 summary): S t r o ng ↓
MIC (M. tuberculosis [8]): 250 to 500 µM and 250 µM
NADH/NAD^+ ratio [9]: significantly increased; also recorded: persisted
NADH/NAD+ ratio ([9]; Acute (≤ 2 h)): N o effect- ↑
NADH/NAD+ ratio ([9]; Delayed (> 2 h)): N o effect- ↑
NADH/NAD+ ratio (summary) ([9]; Table S2 summary): S t r o ng ↑
Effect on Δψ (membrane potential), DiSC3(5) fluorescence reversal (M. smegmatis [10]): rapidly depolarized the membrane potential
Δψ collapse (M. smegmatis [10]; High (> 62.5 µM) 2B8): S t r o ng
Δψ collapse (M. smegmatis [10]; Low (≤ 62.5 µM) 2B8): S t r o ng
Δψ collapse (summary) (M. smegmatis [10]; Table S2 summary): S t r o ng
alamarBlue reduction (M. tuberculosis [11]): inhibited
alamarBlue reduction (M. tuberculosis [11]; [18]): N o effect
alamarBlue reduction (M. tuberculosis [11]; M. tuberculosis, 2B8 62.5 µM): not
alamarBlue reduction (summary) (M. tuberculosis [11]; Table S2 summary, mycobacteria): S t r o ng ↓
Effect on NADH oxidation (fluorescence decay 340ex/460em) (M. smegmatis IMVs [12]): significantly inhibited
NADH oxidation (M. smegmatis IMVs [12]; [17]): N o effect
Concentration at which NADH oxidation is significantly inhibited (M. smegmatis IMVs [12]; M. smegmatis IMVs): greater than 62.5 µM
NADH oxidation (summary) (M. smegmatis IMVs [12]; Table S2 summary): S t r o ng ↓
MIC (MIC95) (M. tuberculosis [13]): 250 µM
O2 consumption rate [14, 16]: ↓ to basal
Concentration required to decrease OCR ([14]; M. tuberculosis): ≥ 93 µM
OCR versus basal OCR ([14]; M. tuberculosis, 250 µM 2B8 (highest tested concentration)): no statistical difference
Effect on oxygen consumption rate (OCR) [14, 19]: OCR increased
Concentration up to which OCR increased (levelling off) ([14]; M. tuberculosis): 62.5 µM
O2 consumption rate (summary) ([14]; Table S2 summary): ↑ t he n ↓
Fold potentiation of Carbenicillin (M. tuberculosis [15]; [20]): 64x
Fold potentiation of Meropenem (M. tuberculosis [15]; [20]): 64x
β-lactam potentiation (summary) (M. tuberculosis [15]; Table S2 summary): S t r o ng ↑

COc1nc2ccc(Br)cc2cc1[C@@H](c1ccccc1)[C@@](O)(CCN(C)C)c1cccc2ccccc12 [BDQ, bedaquiline, reference compound]
[ATP]i (summary) (M. tuberculosis [1]; Table S2 summary): S t r o ng ↓
ΔpH collapse (summary) (M. smegmatis IMVs [5]; Table S2 summary): Intermediate
ETC activity (summary) (M. smegmatis IMVs [7]; Table S2 summary): N o effect
MIC (M. tuberculosis [8]; Mycobacterium tuberculosis, M. tuberculosis, read-out: MIC (MIC95)): 0.125 µM (≈ 0.0694 µg/mL)
NADH/NAD^+ ratio [9]: increased
NADH/NAD+ ratio (summary) ([9]; Table S2 summary): Intermediate ↑
Δψ collapse (summary) (M. smegmatis [10]; Table S2 summary): N o effect
alamarBlue reduction (summary) (M. tuberculosis [11]; Table S2 summary, mycobacteria): N o effect
Effect on NADH oxidation (fluorescence decay 340ex/460em) (M. smegmatis IMVs [12]): inhibited
NADH oxidation (summary) (M. smegmatis IMVs [12]; Table S2 summary): Intermediate ↓
Effect on oxygen consumption rate (OCR) [14, 19]: significantly increased M. tuberculosis OCR
Concentration up to which OCR increased (levelling off) ([14]; M. tuberculosis): 9 µM
Fold potentiation of Carbenicillin (M. tuberculosis [15]; [20]): 4x
Fold potentiation of Meropenem (M. tuberculosis [15]; [20]): 4x
β-lactam potentiation (summary) (M. tuberculosis [15]; Table S2 summary): Weak ↑

CC1(C)S[C@@H]2[C@H](NC(=O)C(C(=O)O)c3ccccc3)C(=O)N2[C@H]1C(=O)O (stereo partly shown) [Carbenicillin]
MIC (MIC95) (M. tuberculosis [13]): 1000 mg/L

C[C@@H](O)[C@H]1C(=O)N2C(C(=O)O)=C(S[C@@H]3CN[C@H](C(=O)N(C)C)C3)[C@H](C)[C@H]12 [Meropenem]
MIC (MIC95) (M. tuberculosis [13]): 8 mg/L

CCCCCCCCCCCCCNC(=O)CCCc1cnc(N)[nH]1 [RA13]
[ATP]i (summary) (M. tuberculosis [1]): N o effect
alamarBlue reduction (M. smegmatis [3]): did not have an effect
ΔpH collapse (summary) (M. smegmatis IMVs [5]): Weak
MIC (M. smegmatis [6]): > 1000 µM
ETC activity (INT reduction at 490 nm) (M. smegmatis IMVs [7]): only affected INT reduction in the presence of both substrates
ETC activity (summary) (M. smegmatis IMVs [7]): Weak ↓
MIC (M. tuberculosis [8]): > 1000 µM
NADH/NAD+ ratio (summary) [9]: N o effect
NADH/NAD^+ ratio [9]: inactive
Effect on Δψ (membrane potential), DiSC3(5) fluorescence reversal (M. smegmatis [10]): no effect
Δψ collapse (summary) (M. smegmatis [10]): N o effect
alamarBlue reduction (M. tuberculosis [11]): did not have an effect
alamarBlue reduction (summary) (M. tuberculosis [11]): N o effect
Effect on NADH oxidation (fluorescence decay 340ex/460em) (M. smegmatis IMVs [12]): did not have any effect
NADH oxidation (summary) (M. smegmatis IMVs [12]): N o effect
Effect on oxygen consumption rate (OCR) [14]: minimal changes in OCR
O2 consumption rate (summary) [14]: Weak ↑
Fold potentiation of Carbenicillin (M. tuberculosis [15]): 1.5x
Fold potentiation of Meropenem (M. tuberculosis [15]): 2x
β-lactam potentiation (summary) (M. tuberculosis [15]): M a r g in a l ↑

CSc1ccc2c(c1)N(CCC1CCCCN1C)c1ccccc1S2 (stereo not shown) [TRZ, thioridazine, reference compound]
[ATP]i (summary) (M. tuberculosis [1]; Table S2 summary): S t r o ng ↓
Restoration of inhibited NADH oxidation by CFZ (M. smegmatis IMVs [2]): not altered by CFZ
Rescue by CFZ (summary) (M. smegmatis IMVs [2]; Table S2 summary): No
ΔpH collapse (summary) (M. smegmatis IMVs [5]; Table S2 summary): S t r o ng
ETC activity (INT reduction at 490 nm) (M. smegmatis IMVs [7]): none and potent and intermediate
ETC activity (summary) (M. smegmatis IMVs [7]; Table S2 summary): S t r o ng ↓
MIC (M. tuberculosis [8]; Mycobacterium tuberculosis, read-out: MIC (MIC95)): 62.5 µM (≈ 23.2 µg/mL)
NADH/NAD+ ratio (summary) [9]: S t r o ng ↑
NADH/NAD^+ ratio [9]: increased
Δψ collapse (summary) (M. smegmatis [10]; Table S2 summary): Intermediate
alamarBlue reduction (summary) (M. tuberculosis [11]; Table S2 summary, mycobacteria): S t r o ng ↓
Effect on NADH oxidation (fluorescence decay 340ex/460em) (M. smegmatis IMVs [12]): significantly slowed down
NADH oxidation (summary) (M. smegmatis IMVs [12]; Table S2 summary): S t r o ng ↓
Effect on oxygen consumption rate (OCR) [14]: significantly increased M. tuberculosis OCR
Fold potentiation of Carbenicillin (M. tuberculosis [15]): 16x
Fold potentiation of Meropenem (M. tuberculosis [15]): 32x
β-lactam potentiation (summary) (M. tuberculosis [15]; Table S2 summary): Intermediate ↑

carbonyl cyanide m-chlorophenyl hydrazine [CCCP, reference compound]
[ATP]i (summary) (M. tuberculosis [1]): Intermediate ↓
Rescue by CFZ (summary) (M. smegmatis IMVs [2]): N o effect
alamarBlue reduction (M. smegmatis [3]): inhibited
ΔpH collapse (summary) (M. smegmatis IMVs [5]): Intermediate
ETC activity (INT reduction at 490 nm) (M. smegmatis IMVs [7]): tendency to increase ETC activity
ETC activity (summary) (M. smegmatis IMVs [7]): Weak ↑
MIC (M. tuberculosis [8]; read-out: MIC (MIC95)): 20 µM
NADH/NAD+ ratio (summary) [9]: N o effect
NADH/NAD^+ ratio [9]: did not increase
Δψ collapse (summary) (M. smegmatis [10]): S t r o ng
alamarBlue reduction (M. tuberculosis [11]): inhibited
alamarBlue reduction (summary) (M. tuberculosis [11]): Weak ↓
Effect on NADH oxidation (fluorescence decay 340ex/460em) (M. smegmatis IMVs [12]): tendency to accelerate NADH oxidation
NADH oxidation (summary) (M. smegmatis IMVs [12]): Weak ↑
Effect on oxygen consumption rate (OCR) [14]: bell-shaped, dose-response effect
O2 consumption rate (summary) [14]: ↑ t he n ↓
Fold potentiation of Carbenicillin (M. tuberculosis [15]): 9.6x
Fold potentiation of Meropenem (M. tuberculosis [15]): 16x
β-lactam potentiation (summary) (M. tuberculosis [15]): Intermediate ↑

— paper PMC6365497, “2-aminoimidazoles collapse mycobacterial proton motive force and block the electron transport chain” (Scientific Reports, 2019)
